Source: patent US9944602B2, “Piperidinone herbicides” (E. I. DU PONT DE NEMOURS AND COMPANY, priority 2014, dated 2018)

Tests used:
Assay type in all cases: in vivo
[1] = tested on: sedge, umbrella (small-flower umbrella sedge, Cyperus difformis); assay: Test B flooded paddy test sedge, umbrella; details: Cyperus difformis, Table B, Flood, 250 g ai/ha, scale 0 to 100, read-out: Plant response rating
How it was run: (§1)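 Visual injury relative to controls was scored after 13 to 15 d in the greenhouse. Treatment was by adding compound straight to flood water 3 cm deep, maintained for the whole test, on plants at the 2-leaf stage.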

[2] = tested on: pigweed (Amaranthus retroflexus); assay: Test A preemergence pigweed; details: Amaranthus retroflexus, pre-emergence, 240 h, 0 to 100 scale, 0 no effect, 100 complete control, read-out: Pigweed plant response rating; for pest or weed control at 125 g/ha: 125 g ai/ha; for pest or weed control at 500 g/ha: 500 g ai/ha
How it was run: (§2)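 Scores are visual injury ratings on a 0–100 scale (100 = complete control) taken about 10 d after treatment, relative to untreated greenhouse controls. Preemergence: directed soil spray over planted seeds in loam/sand; postemergence: spray onto one- to two-leaf plants 2–10 cm high; surfactant-containing solvent formulation.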

[3] = tested on: ragweed (common ragweed, Ambrosia elatior); assay: Test A postemergence ragweed; details: Ambrosia artemisiifolia, post-emergence, 240 h, 0 to 100 scale, 0 is no effect, 100 is complete control, read-out: Plant response rating, Ragweed; for pest or weed control at 125 g/ha: 125 g ai/ha; for pest or weed control at 500 g/ha: 500 g ai/ha
How it was run: as §2

[4] = tested on: ryegrass, Italian (Italian ryegrass, Lolium multiflorum); assay: Test A postemergence ryegrass, Italian; details: Lolium multiflorum, post-emergence, 240 h, 0 to 100 scale, 0 is no effect, 100 is complete control, read-out: Plant response rating, Ryegrass, Italian; for pest or weed control at 125 g/ha: 125 g ai/ha; for pest or weed control at 500 g/ha: 500 g ai/ha
How it was run: as §2

[5] = tested on: foxtail, giant (giant foxtail, Setaria faberii); assay: Test A preemergence foxtail, giant; details: Setaria faberi, pre-emergence, 240 h, 0 to 100 scale, 0 no effect, 100 complete control, read-out: Foxtail, Giant plant response rating; for pest or weed control at 125 g/ha: 125 g ai/ha; for pest or weed control at 500 g/ha: 500 g ai/ha
How it was run: as §2

[6] = tested on: ragweed (common ragweed, Ambrosia elatior); assay: Test A preemergence ragweed; details: Ambrosia artemisiifolia, pre-emergence, 240 h, 0 to 100 scale, 0 no effect, 100 complete control, read-out: Ragweed plant response rating; for pest or weed control at 125 g/ha: 125 g ai/ha; for pest or weed control at 500 g/ha: 500 g ai/ha
How it was run: as §2

[7] = tested on: kochia (Kochia scoparia); assay: Test A postemergence kochia; details: Bassia scoparia, post-emergence, 240 h, 0 to 100 scale, 0 is no effect, 100 is complete control, read-out: Plant response rating, Kochia; for pest or weed control at 125 g/ha: 125 g ai/ha; for pest or weed control at 500 g/ha: 500 g ai/ha
How it was run: as §2

[8] = tested on: foxtail, giant (giant foxtail, Setaria faberii); assay: Test A postemergence foxtail, giant; details: Setaria faberi, post-emergence, 240 h, 0 to 100 scale, 0 is no effect, 100 is complete control, read-out: Plant response rating, Foxtail, Giant; for pest or weed control at 125 g/ha: 125 g ai/ha; for pest or weed control at 500 g/ha: 500 g ai/ha
How it was run: as §2

[9] = tested on: kochia (Kochia scoparia); assay: Test A preemergence kochia; details: Bassia scoparia, pre-emergence, 240 h, 0 to 100 scale, 0 no effect, 100 complete control, read-out: Kochia plant response rating; for pest or weed control at 125 g/ha: 125 g ai/ha; for pest or weed control at 500 g/ha: 500 g ai/ha
How it was run: as §2

[10] = tested on: blackgrass (Alopecurus myosuroides); assay: Test A postemergence blackgrass; details: Alopecurus myosuroides, post-emergence, 240 h, 0 to 100 scale, 0 is no effect, 100 is complete control, read-out: Plant response rating, Blackgrass; for pest or weed control at 125 g/ha: 125 g ai/ha; for pest or weed control at 500 g/ha: 500 g ai/ha
How it was run: as §2

[11] = tested on: galium (catchweed bedstraw, Galium aparine); assay: Test A postemergence galium; details: Galium, post-emergence, 240 h, 0 to 100 scale, 0 is no effect, 100 is complete control, read-out: Plant response rating, Galium; for pest or weed control at 125 g/ha: 125 g ai/ha; for pest or weed control at 500 g/ha: 500 g ai/ha
How it was run: as §2

[12] = tested on: wheat (Triticum aestivum); assay: Test A postemergence wheat; details: Triticum aestivum, post-emergence, 240 h, 0 to 100 scale, 0 is no effect, 100 is complete control, read-out: Plant response rating, Wheat; for plant injury at 125 g/ha: 125 g ai/ha; for plant injury at 500 g/ha: 500 g ai/ha
How it was run: as §2

[13] = tested on: ducksalad (Heteranthera limosa); assay: Test B flooded paddy test ducksalad; details: Heteranthera limosa, Table B, Flood, 250 g ai/ha, scale 0 to 100, read-out: Plant response rating
How it was run: as §1

[14] = tested on: pigweed (Amaranthus retroflexus); assay: Test A postemergence pigweed; details: Amaranthus retroflexus, post-emergence, 240 h, 0 to 100 scale, 0 is no effect, 100 is complete control, read-out: Plant response rating, Pigweed; for pest or weed control at 125 g/ha: 125 g ai/ha; for pest or weed control at 500 g/ha: 500 g ai/ha
How it was run: as §2

[15] = tested on: ryegrass, Italian (Italian ryegrass, Lolium multiflorum); assay: Test A preemergence ryegrass, Italian; details: Lolium multiflorum, pre-emergence, 240 h, 0 to 100 scale, 0 no effect, 100 complete control, read-out: Ryegrass, Italian plant response rating; for pest or weed control at 125 g/ha: 125 g ai/ha; for pest or weed control at 500 g/ha: 500 g ai/ha
How it was run: as §2

[16] = tested on: barnyardgrass (Echinochloa crus-galli); assay: Test A postemergence barnyardgrass; details: Echinochloa crus-galli, post-emergence, 240 h, 0 to 100 scale, 0 is no effect, 100 is complete control, read-out: Plant response rating, Barnyardgrass; for pest or weed control at 125 g/ha: 125 g ai/ha; for pest or weed control at 500 g/ha: 500 g ai/ha
How it was run: as §2

[17] = tested on: corn (Zea mays); assay: Test A postemergence corn; details: Zea mays, post-emergence, 240 h, 0 to 100 scale, 0 is no effect, 100 is complete control; for Corn plant response rating (crop injury, 0 = no effect, 100 = complete kill) at 125 g/ha: 125 g ai/ha; for Corn plant response rating (crop injury, 0 = no effect, 100 = complete kill) at 500 g/ha: 500 g ai/ha
How it was run: as §2

[18] = tested on: barnyardgrass (Echinochloa crus-galli); assay: Test A preemergence barnyardgrass; details: Echinochloa crus-galli, pre-emergence, 240 h, 0 to 100 scale, 0 no effect, 100 complete control, read-out: Barnyardgrass plant response rating; for pest or weed control at 125 g/ha: 125 g ai/ha; for pest or weed control at 500 g/ha: 500 g ai/ha
How it was run: as §2

[19] = tested on: rice (Oryza sativa); assay: Test B flooded paddy test rice; details: Oryza sativa, Table B, Flood, 250 g ai/ha, scale 0 to 100, read-out: Plant response rating
How it was run: as §1

[20] = tested on: barnyardgrass (Echinochloa crus-galli); assay: Test B flooded paddy test barnyardgrass; details: Echinochloa crus-galli, Table B, Flood, 250 g ai/ha, scale 0 to 100, read-out: Plant response rating
How it was run: as §1

| SMILES | pest or weed control at 250 g/ha [1] [%] | pest or weed control at 125 g/ha [2] [%] | pest or weed control at 500 g/ha [2] [%] | pest or weed control at 125 g/ha [3] [%] | pest or weed control at 500 g/ha [3] [%] | pest or weed control at 125 g/ha [4] [%] | pest or weed control at 500 g/ha [4] [%] | pest or weed control at 125 g/ha [5] [%] | pest or weed control at 500 g/ha [5] [%] | pest or weed control at 125 g/ha [6] [%] | pest or weed control at 500 g/ha [6] [%] | pest or weed control at 125 g/ha [7] [%] | pest or weed control at 500 g/ha [7] [%] | pest or weed control at 125 g/ha [8] [%] | pest or weed control at 500 g/ha [8] [%] | pest or weed control at 125 g/ha [9] [%] | pest or weed control at 500 g/ha [9] [%] | pest or weed control at 125 g/ha [10] [%] | pest or weed control at 500 g/ha [10] [%] | pest or weed control at 125 g/ha [11] [%] | also measured |
| --- | --- | --- | --- | --- | --- | --- | --- | --- | --- | --- | --- | --- | --- | --- | --- | --- | --- | --- | --- | --- | --- |
| O=C1NCC[C@H](c2ccc(C(F)(F)F)cc2)[C@H]1C(=O)Nc1cccc(F)c1F [Compound 22, (3R,4S)—N-(2,3-difluorophenyl)-2-oxo-4-[4-(trifluoromethyl)phenyl]-3-piperidinecarboxamide] | 0 | 20 | 50 | 50 | 50 | 40 | 70 | 90 | 90 | 60 | 80 | 40 | 60 | 90 | 90 | 70 | 80 | 50 | 60 | 50 | pest or weed control at 500 g/ha [11]: 70%; plant injury at 125 g/ha [12]: 0%; plant injury at 500 g/ha [12]: 60%; pest or weed control at 250 g/ha [13]: 100%; pest or weed control at 125 g/ha [14]: 40%; pest or weed control at 500 g/ha [14]: 50%; pest or weed control at 125 g/ha [15]: 20%; pest or weed control at 500 g/ha [15]: 60%; pest or weed control at 125 g/ha [16]: 80%; pest or weed control at 500 g/ha [16]: 90%; Corn plant response rating (crop injury, 0 = no effect, 100 = complete kill) at 125 g/ha [17]: 0%; Corn plant response rating (crop injury, 0 = no effect, 100 = complete kill) at 500 g/ha [17]: 60%; pest or weed control at 125 g/ha [18]: 90%; pest or weed control at 500 g/ha [18]: 90%; plant injury at 250 g/ha [19]: 0%; pest or weed control at 250 g/ha [20]: 65% |
| O=C1NCC[C@H](c2cccc(C(F)(F)F)c2)[C@H]1C(=O)Nc1cccc(Cl)c1F [Compound 25, (3R,4S)—N-(3-chloro-2-fluorophenyl)-2-oxo-4-[3-(trifluoromethyl)phenyl]-3-piperidinecarboxamide] | 0 | 0 | 0 | 0 | 0 | 30 | 40 | 90 | 90 | 0 | 0 | 0 | 0 | 80 | 80 | 0 | 0 | 60 | 80 | 30 | pest or weed control at 500 g/ha [11]: 30%; plant injury at 125 g/ha [12]: 40%; plant injury at 500 g/ha [12]: 60%; pest or weed control at 250 g/ha [13]: 45%; pest or weed control at 125 g/ha [14]: 0%; pest or weed control at 500 g/ha [14]: 0%; pest or weed control at 125 g/ha [15]: 0%; pest or weed control at 500 g/ha [15]: 50%; pest or weed control at 125 g/ha [16]: 80%; pest or weed control at 500 g/ha [16]: 80%; Corn plant response rating (crop injury, 0 = no effect, 100 = complete kill) at 125 g/ha [17]: 20%; Corn plant response rating (crop injury, 0 = no effect, 100 = complete kill) at 500 g/ha [17]: 70%; pest or weed control at 125 g/ha [18]: 90%; pest or weed control at 500 g/ha [18]: 90%; plant injury at 250 g/ha [19]: 0%; pest or weed control at 250 g/ha [20]: 60% |
